Patent publication US4748161A, “Triterpenyl esters of organic acids and hypolipidemic agents composed of them” (Amano Pharmaceutical Co., Ltd., priority 1984, dated 1988)

System: serum lipids and serum lipid hydroperoxide
Experiment: Pharmacological test method A for anti-hyperlipidemic activity (serum lipids, 2 weeks feeding)
Type: in vivo, male Wistar strain rats
Details: for AI [(TC - HDL-C)/(HDL-C)] / HDL-C in serum / LPO in serum / PL in serum / TC in serum / TG in serum: 1% in hyperlipidemic diet, 2 weeks
Summary of the method: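 Serum TC, HDL-C (heparin precipitation), PL, TG and LPO measured by colorimetric kits, largely at 500 nm, from abdominal aorta blood after 16 h fasting. Rats (male Wistar, 10/group) ate a cholesterol/cholic acid diet 10 g/day for 2 weeks, supplemented with 1% each of three cycloartane triterpenoids.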

Compound | AI [(TC - HDL-C)/(HDL-C)] | HDL-C in serum [mg/dL] | LPO in serum [nmol/mL] | PL in serum [mg/dL] | TC in serum [mg/dL] | TG in serum [mg/dL] | AI % of diff. (versus control group) | HDL-C % of diff. (versus control group) | HDL-C Diff. (versus control group) | LPO % of diff. (versus control group) | LPO Diff. (versus control group) | PL % of diff. (versus control group) [%] | PL Diff. (versus control group) [mg/dL] | TC % of diff. (versus control group) [%] | TC Diff. (versus control group) [mg/dL] | TG % of diff. (versus control group) | TG Diff. (versus control group) | AI Diff. (versus control group) | AI Diff. (Table 2, versus control group)
CC(C)=C(C)CCC(C)C1CCC2(C)C3CCC4C(C)(C)C(OC(=O)/C=C/c5ccc(O)c(O)c5)CCC45CC35CCC12C (centres unmarked) [Example 32, cyclobranyl-3,4-dihydroxycinnamate] | 1.135 | 89.2 | 2.06 | 168.2 | 190.4 | 40.7 | -32.6% | +10.2% | +8.3 mg/dl | -10.7% | -0.25 nmol/mL | -6.4 | -11.5 | -12.3 | -26.7 | -4.8% | -2.1 mg/dL | – | –
COc1ccccc1C(=O)OC1CCC23CC24CCC2(C)C(C(C)CCC=C(C)C)CCC2(C)C4CCC3C1(C)C (centres unmarked) [Example 13, cycloartenyl-o-methoxybenzoate] | 1.388 | 60.5 | 1.94 | 122.8 | 144.5 | 26.2 | -21.4% | +0.5% | +0.3 mg/dl | -23.3% | -0.59 nmol/mL | -10.2 | -13.9 | -13.3 | -22.1 | -3.7% | -1.0 mg/dL | -0.379 | –
CC(C)=C(C)CCC(C)C1CCC2(C)C3CCC4C(C)(C)C(OC(=O)c5ccc(O)c(O)c5)CCC45CC35CCC12C (centres unmarked) [Example 39, cyclobranyl-3,4-dihydroxybenzoate] | 0.803 | 98.1 | 1.99 | 155.1 | 176.9 | 39.8 | -52.3% | +21.2% | +17.2 mg/dl | -14.0% | -0.32 nmol/mL | -13.7 | -24.6 | -18.5 | -40.2 | -6.9% | -3.0 mg/dL | -0.881 | –
CC(C)=C(C)CCC(C)C1CCC2(C)C3CCC4C(C)(C)C(OC(=O)c5ccccc5N)CCC45CC35CCC12C (centres unmarked) [Example 47, cyclobranyl-o-aminobenzoate] | 1.811 | 53.4 | 2.03 | 140.3 | 150.1 | 20.4 | -1.9% | -9.0% | -5.3 mg/dL | -13.2% | -0.31 nmol/mL | -5.5 | -8.1 | -10.2 | -17.0 | -17.7% | -4.4 mg/dL | -0.036 | –
CC(C)=CCCC(C)C1CCC2(C)C3CCC4C(C)(C)C(OC(=O)c5ccc(O)cc5)CCC45CC35CCC12C (centres unmarked) [Example 10, cycloartenyl-p-hydroxybenzoate] | 1.543 | 57.6 | 1.73 | 123.3 | 146.5 | 27.3 | -12.7% | -4.3% | -2.6 mg/dL | -31.6% | -0.80 nmol/mL | -9.8 | -13.4 | -12.1 | -20.1 | +0.4% | +0.1 mg/dl | -0.224 | –
COc1cc(C(=O)OC2CCC34CC35CCC3(C)C(C(C)CCC(C)=C(C)C)CCC3(C)C5CCC4C2(C)C)ccc1O (centres unmarked) [Example 37, cyclobranyl-4-hydroxy-3-methoxybenzoate] | 0.460 | 110.4 | 1.91 | 155.4 | 161.2 | 31.0 | -54.1% | +14.8% | +14.2 mg/dl | -18.0% | -0.42 nmol/mL | -14.1 | -25.5 | -16.3 | -31.4 | -6.6% | -2.2 mg/dL | -0.542 | –
CCOc1cc(C=CC(=O)OC2CCC34CC35CCC3(C)C(C(C)CCC(C)=C(C)C)CCC3(C)C5CCC4C2(C)C)ccc1O (centres unmarked) [Example 71, cyclobranyl-3-ethoxy-4-hydroxycinnamate] | 0.523 | 106.0 | 1.96 | 157.7 | 161.4 | 32.9 | -47.8% | +10.2% | +9.8 mg/dl | -15.9% | -0.37 nmol/mL | -12.8 | -23.2 | 16.2 | -31.2 | -2.8% | -0.9 mg/dL | -0.479 | –
Cycloartenyl-3,4-dipropionyloxycinnamate [Example 3] | 1.605 | 76.8 | 2.40 | 167.0 | 200.1 | 33.3 | +5.8% | -5.8% | -4.7 mg/dL | +5.8% | +0.13 nmol/ml | -3.8 | -6.6 | -2.4 | -5.0 | -2.9% | -1.0 mg/dL | – | +0.088 mg/dl
CC(C)=CCCC(C)C1CCC2(C)C3CCC4C(C)(C)C(OC(=O)C=Cc5cccc(N)c5)CCC45CC35CCC12C (centres unmarked) [Example 108, cycloartenyl ester of m-aminocinnamic acid] | 3.627 | 46.6 | 2.20 | 151.4 | 215.6 | 29.0 | -53.7% | +26.3% | +9.7 mg/dl | -21.4% | -0.60 nmol/mL | -8.6 | -14.2 | -33.9 | -110.6 | -14.7% | -5.0 mg/dL | -4.213 | –
CC(C)=CCCC(C)C1CCC2(C)C3CCC4C(C)(C)C(OC(=O)C=Cc5ccc([N+](=O)[O-])cc5)CCC45CC35CCC12C (centres unmarked) [Example 101, cycloartenyl ester of p-nitro cinnamic acid] | 3.668 | 46.4 | 2.12 | 150.7 | 216.6 | 28.2 | -53.2% | +25.7% | +9.5 mg/dl | -24.3% | -0.68 nmol/mL | -9.0 | -14.9 | -33.6 | -109.6 | -17.1% | -5.8 mg/dL | -4.172 | –
CCCCC/C=C\C/C=C\CCCCCCCC(=O)OC1CCC23CC24CCC2(C)C(C(C)CCC(C)=C(C)C)CCC2(C)C4CCC3C1(C)C (centres unmarked) [Example 51, cyclobranyllinolate] | 0.623 | 96.4 | 1.69 | 146.0 | 156.5 | 34.7 | -49.0% | +11.5% | +9.9 mg/dl | -24.4% | -0.55 nmol/mL | -15.4 | -26.6 | -18.6 | -35.7 | -4.3% | -1.6 mg/dL | -0.599 | –
CC(C)=CCCC(C)C1CCC2(C)C3CCC4C(C)(C)C(OC(=O)c5cccc(N)c5)CCC45CC35CCC12C (centres unmarked) [Example 23, cycloartenyl-m-aminobenzoate] | 1.506 | 58.9 | 2.06 | 133.1 | 147.6 | 20.2 | -18.5% | +0.3% | +0.2 mg/dl | -12.0% | -0.28 nmol/mL | -10.3 | -15.3 | -11.7 | -19.5 | -18.5% | -4.6 mg/dL | -0.341 | –
